Here are results for 2 compounds from PMC7317746 (Environmental and Molecular Mutagenesis, 2020).

Each structure is given as a SMILES string.

Common to all, as to assay type: in vivo, rat
One series has as its system peripheral blood cells. The series is described as follows: Comet assay, peripheral blood cells.
Another series deals with liver cells. The experiment in a line: Comet assay, liver cells.
The next series has as its system male Sprague Dawley rats. The series is described as follows: Pig‐a assay.
Where [1] appears, read: 1-Month Study, 200 mg/kg/day Days 28-29, Day 29, positive control.
[2] abbreviates: 3-Day Study, 200 mg/kg/day Days 2-3, Day 3, positive control.
The mark [3] stands for this setting: 1-Month Study, 40 mg/kg/day Days 1-3, Day 15, positive control.
Setting [4] is: 1-Month Study, 40 mg/kg/day Days 1-3, Day 29, positive control.
[5] abbreviates: 1-Month Study, 40 mg/kg/day, Day -1 (pre-treatment).
Setting [6] is: 3-Day Study, 40 mg/kg/day Days 1-3, Day 15, positive control.
The mark [7] stands for this setting: 3-Day Study, 40 mg/kg/day Days 1-3, Day 30, positive control.
Setting [8] is: 3-Day Study, 40 mg/kg/day Days 1-3, Day 45, positive control.
Where [9] appears, read: 3-Day Study, 40 mg/kg/day, Day -4 (pre-treatment).

With `CCOS(C)(=O)=O` [EMS, ethyl methanesulfonate], the “Blood % tail intensity mean ± SD” value in the series with peripheral blood cells (setting [1]) is on record as 26.41 ± 4.85 %; with peripheral blood cells (setting [2]) it was 24.56 ± 1.94 %. Moreover, the “Liver % tail intensity mean ± SD” value with liver cells (setting [1]) is reported as 30.79 ± 10.66 %; with liver cells (setting [2]), 28.07 ± 1.64 %.
For `CCN(N=O)C(N)=O` [ENU, N‐ethyl‐N‐nitrosourea], the “%RETs mean ± SD” value with male Sprague Dawley rats (setting [3]) is 3.1 ± 0.4%; in the series with male Sprague Dawley rats (setting [4]), 3.7 ± 0.7%; in the series with male Sprague Dawley rats (setting [5]), 4.8 ± 0.7%; with male Sprague Dawley rats (setting [6]), 3.3 ± 1.1%; in the series on male Sprague Dawley rats (setting [7]) it was 3.3 ± 0.6%; with male Sprague Dawley rats (setting [8]), 2.7 ± 0.7%. The “%RETs mean ± SD” value in the series with male Sprague Dawley rats (setting [9]) amounted to 3.2 ± 0.4%. The “Number of CD59‐Neg RBCs per 10^6 RBCs mean ± SD” value came to 79.5 ± 12.3 per 10^6 RBCs in the series with male Sprague Dawley rats (setting [3]); 211.0 ± 26.9 per 10^6 RBCs in the series with male Sprague Dawley rats (setting [4]); 0.6 ± 0.3 per 10^6 RBCs in the series with male Sprague Dawley rats (setting [5]); 97.7 ± 7.2 per 10^6 RBCs with male Sprague Dawley rats (setting [6]); 256.7 ± 62.0 per 10^6 RBCs in the series with male Sprague Dawley rats (setting [7]); 382.7 ± 26.3 per 10^6 RBCs in the series with male Sprague Dawley rats (setting [8]). Besides, the “Number of CD59‐Neg RBCs per 10^6 RBCs mean ± SD” value in the series on male Sprague Dawley rats (setting [9]) is 0.4 ± 0.1 per 10^6 RBCs. For the same compound, the “Number of CD59‐Neg RETs per 10^6 RETs mean ± SD” value in the series with male Sprague Dawley rats (setting [3]) came to 356.2 ± 64.4 per 10^6 RETs; in the series on male Sprague Dawley rats (setting [4]), 291.4 ± 33.7 per 10^6 RETs; in the series with male Sprague Dawley rats (setting [5]), 0.5 ± 0.5 per 10^6 RETs; with male Sprague Dawley rats (setting [6]), 414.2 ± 6.5 per 10^6 RETs; in the series on male Sprague Dawley rats (setting [7]), 282.7 ± 77.4 per 10^6 RETs; with male Sprague Dawley rats (setting [8]), 305.9 ± 59.5 per 10^6 RETs. Moreover, the “Number of CD59‐Neg RETs per 10^6 RETs mean ± SD” value in the series on male Sprague Dawley rats (setting [9]) was determined as 1.6 ± 0.7 per 10^6 RETs.
